In PubChem BioAssay (NCI):
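Values below derive from 48-hour exposures of cells grown in 96-well plates, with endpoints linearly interpolated between the two concentrations bracketing the appropriate inhibition level. GI50 is the concentration that inhibits growth by half. TGI: total growth inhibition.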

Tests used:
Test in all cases: NCI anticancer screen, dose series, 48 h
[1] = tested on: EKVX NSCLC
[2] = tested on: M14 melanoma
[3] = tested on: PC-3 prostate
[4] = tested on: SK-MEL-28 melanoma
[5] = tested on: SW-620 colon
[6] = tested on: T-47D breast
[7] = tested on: TK-10 renal
[8] = tested on: UACC-62 melanoma

CCCC(CC)c1cc(O)c(O)cc1C(CC)CCC (stereo unspecified)
TGI [1]: > 10 µM | TGI [2]: > 10 µM | TGI [3]: > 10 µM | TGI [4]: > 10 µM | TGI [5]: > 10 µM | TGI [6]: > 10 µM | TGI [7]: > 10 µM | TGI [8]: > 10 µM

COC(=O)NC(Nc1ccc(C)cc1)(C(F)(F)F)C(F)(F)F
TGI [1]: > 100 µM | TGI [2]: > 100 µM | TGI [3]: > 100 µM | TGI [4]: > 100 µM | TGI [5]: > 100 µM | TGI [6]: > 100 µM | TGI [7]: > 100 µM | TGI [8]: > 100 µM

O=C(c1ccccc1)c1ccc2nc(-c3c(Cl)c(Cl)c(Cl)c(Cl)c3C(=O)Nc3ccco3)[nH]c2c1
TGI [1]: > 100 µM | TGI [2]: > 100 µM | TGI [3]: > 100 µM | TGI [4]: > 100 µM | TGI [5]: > 100 µM | TGI [6]: > 100 µM | TGI [7]: > 100 µM | TGI [8]: > 100 µM

COc1ccc2c3c([nH]c2c1)-c1nc2ccccc2c(=O)n1CC3
TGI [1]: > 25 µM | TGI [2]: > 25 µM | TGI [3]: > 25 µM | TGI [4]: > 25 µM | TGI [5]: > 25 µM | TGI [6]: > 25 µM | TGI [7]: > 25 µM

CC(=O)Nc1nc(C)c(S(=O)(=O)NC(=O)N2c3ccccc3CCc3ccccc32)s1
TGI [1]: > 100 µM | TGI [2]: > 100 µM | TGI [3]: > 100 µM | TGI [4]: > 100 µM | TGI [5]: > 100 µM | TGI [6]: > 100 µM | TGI [7]: > 100 µM | TGI [8]: > 100 µM

COc1c(-c2ccc(F)cc2)oc2cc(O)cc(O)c2c1=O
TGI [1]: 45.5 µM | TGI [2]: > 100 µM | TGI [3]: > 100 µM | TGI [4]: > 100 µM | TGI [5]: > 100 µM | TGI [6]: 56.9 µM

N#C[C@H]1C(=O)C(c2nc3ccccc3[nH]2)S[C@H]1c1ccccc1 (stereo partly specified)
TGI [1]: > 100 µM | TGI [2]: > 100 µM | TGI [4]: > 100 µM | TGI [5]: > 100 µM | TGI [7]: > 100 µM | TGI [8]: 36.7 µM

O=[N+]([O-])c1cccc([N+](=O)[O-])c1Cl
TGI [1]: 46.4 µM | TGI [2]: > 100 µM | TGI [3]: 38.7 µM | TGI [4]: 42 µM | TGI [5]: > 100 µM | TGI [6]: 14.7 µM | TGI [7]: 41.3 µM | TGI [8]: 42.9 µM

COc1ccc(-c2cc(-c3ccc(OC)c(OC)c3)nc(SCCCC(=O)NO)n2)cc1
GI50 [1]: 1.73 µM | TGI [1]: > 100 µM | GI50 [3]: 2.07 µM | TGI [3]: > 100 µM | GI50 [5]: 0.906 µM | TGI [5]: 10.7 µM | GI50 [6]: 1.42 µM | TGI [6]: > 100 µM | GI50 [7]: 0.722 µM | TGI [7]: > 100 µM | GI50 [8]: 1.14 µM | TGI [8]: 2.68 µM

O=C1CCc2cc3c(cc21)C(C(=O)O)CC3 (stereo unspecified)
TGI [1]: > 100 µM | TGI [2]: > 100 µM | TGI [3]: > 100 µM | TGI [4]: > 100 µM | TGI [5]: > 100 µM | TGI [6]: > 100 µM | TGI [7]: > 100 µM | TGI [8]: > 100 µM

O=C1NC(=S)N/C1=C\c1ccc(Sc2ccccc2C(=O)O)s1
TGI [1]: > 100 µM | TGI [3]: > 100 µM | TGI [4]: > 100 µM | TGI [5]: > 100 µM | TGI [6]: > 100 µM | TGI [7]: > 100 µM | TGI [8]: > 100 µM

O=C1c2ccccc2C2(c3ccc(Cl)cc3)N[C@@H]3CCCC[C@@H]3N12 (stereo partly specified)
TGI [1]: > 100 µM | TGI [2]: > 100 µM | TGI [3]: > 100 µM | TGI [4]: > 100 µM | TGI [5]: > 100 µM | TGI [6]: > 100 µM | TGI [7]: > 100 µM | TGI [8]: > 100 µM

COc1ccc(Nc2nc(NNC(=O)Cc3ccccc3)nc(NNC(=O)c3ccncc3)n2)cc1
TGI [1]: > 10 µM | TGI [2]: > 10 µM | TGI [4]: > 10 µM | TGI [5]: > 10 µM | TGI [6]: > 10 µM | TGI [7]: > 10 µM | TGI [8]: 8.65 µM
